{
  "source": "patent US20010012631A1",
  "about": "“Plant clonal lines and plants having elevated secondary metabolite levels” (University of Massachusetts Medical Center, a Massachusetts …, priority 1997, published 2001)",
  "key": {"rosemary clonal line R-7": {"test_system": "rosemary clonal line R-7", "assay": "RA content of shoot propagules, rosemary clonal line R-7", "assay_type": "cell-based", "conditions": "rosemary R-7, A2C 200 μM, 30 to 45 days; ± SD", "experimental": "(§1) Samples of Pseudomonas-treated and untreated control shoots from each line were assayed for rosmarinic acid content and proline content. Rosmarinic acid was extracted from 50 mg of fresh shoot tissue using 2 ml of 50% (v/v) methanol and incubating for 1 hour at 55° C. One ml of the methanol extract was diluted 1:18 and the absorbance of the diluted extract was measured at 333 nm in a Genesys spectrophotometer (Spectronic Instruments, Rochester, N.Y.). The concentration of RA in the extract was calculated using an extinction coefficient of ε333=19,000 τmol^−1cm^−1. Values for the concentration of RA for each treatment/clonal line shown in the Tables and Figures of this application are the average of at least 5 separate extracts. Total rosmarinic acid content was expressed as % g/g fresh weight (FW) of tissue.\n(§2) Three clonal thyme lines and five rosemary clonal lines were isolated and maintained in culture as described in U.S. application Ser. No. 08/771,241, filed Dec. 20, 1996 and incorporated herein by reference.\n(§3) Individual shoot propagules of each clonal line were transferred to half-strength hormone-free MS media supplemented with A2C and cultured for 30 to 45 days. RA content and morphological abnormalities were determined at the end of the culture period as described in Example 1."}, "[1]": {"test_system": "rosemary clonal line R-15", "assay": "RA content of shoot propagules, rosemary clonal line R-15", "assay_type": "cell-based", "conditions": "30 to 45 days", "experimental": "as §1, §2, §3"}, "[2]": {"test_system": "rosemary clonal line R-16", "assay": "RA content of shoot propagules, rosemary clonal line R-16", "assay_type": "cell-based", "conditions": "30 to 45 days", "experimental": "as §1, §2, §3"}, "[3]": {"test_system": "rosemary clonal line R-35", "assay": "RA content of shoot propagules, rosemary clonal line R-35", "assay_type": "cell-based", "conditions": "30 to 45 days, ± SD", "experimental": "as §1, §2, §3"}, "[4]": {"test_system": "Glucose-6-phosphate dehydrogenase (G-6-PDH)", "assay_type": "cell-based, oregano", "conditions": "A2C 50 μM", "experimental": "(§4) These enzymes are involved in synthesis of phenolic secondary metabolites (PAL) and in the pentose phosphate pathway (G-6-PDH).\n(§5) One gm fresh weight of leaves were ground to a powder in liquid nitrogen, and homogenized in 0.1 M Tris-HCl buffer (pH 7.4) containing 1 mM phenylmethyl-sulfonyl fluoride (PMSF), 0.1% polyvinylpyrrolidone (PVP, to remove phenolics and polysaccharides) and 1 mM dithiothreitol (DTT). Extracts were centrifuged at 15,000×g for 20 minutes, and supernatants (5 ml) were partially purified through a PD 10 column (Pharmacia, Inc., NJ). Protein was eluted from the column using 5 ml of 0.1 M Tris-HCl, pH 8.5, which is close to the pH optimum of plant glucose-6-phosphate dehydrogenase (pH 8.0-8.2) and PAL (pH 8.8).\nGlucose-6-phosphate dehydrogenase activity in the protein extract was measured spectrophotometrically by following the change in absorbance at 340 nm in the presence of saturating amounts of glucose-6-phosphate (2mM) and NADP (5 μM) in 0.1 M Tris-HCl, pH 8.0. One unit of glucose-6-phosphate dehydrogenase was defined as the amount of enzyme causing the reduction of 1 μmol of NADP^+ per minute. Specific activity was expressed as units per milligram of protein."}, "[5]": {"test_system": "phenylalanine ammonia lyase (PAL)", "assay_type": "cell-based, oregano", "conditions": "A2C 50 μM", "experimental": "as §4, §5\nPhenylalanine ammonia-lyase (PAL) activity in the protein extract was assayed based on the conversion of L-phenylalanine (6.67 mM) to trans cinnamic acid. The reaction was carried out at 30° C. in borate buffer (33 mM), pH 8.8 with L-phenylalanine as substrate and the change in absorbance at 290 nm was measured. PAL was expressed as nanomoles of trans-cinnamic acid formed per minute per milligram of protein. Protein was determined by the Bradford dye-binding method using bovine serum albumin as a standard."}, "oregano clonal line 0-4": {"test_system": "oregano clonal line 0-4", "assay": "Morphological abnormalities / tolerance of cultured shoots, oregano line 0-4", "assay_type": "cell-based", "conditions": "line 0-4 cultured in the presence of 100 μM azetidine-2-carboxylic acid", "experimental": "(§6) Pseudomonas tolerance of Pseudomonas-treated shoots was determined by visual observation with a stereomicroscope (Olympus-SZ40, Tokyo, Japan) at a magnification of 34X. Cultured shoots were evaluated for morphological abnormalities, including malformation, necrosis, and chlorophyll deficiency. The response of individual tissue propagules to Pseudomonas contact was similar within each line, i.e., there was little or no variation among tissue propagules within each line.\n(§7) Shoot tissue from oregano lines 0-4 and 0-5 was also cultured in the presence of A2C for 30 days. Samples of treated and control shoots were then assayed for RA content on a fresh weight basis and for morphological abnormalities."}, "oregano clonal line 0-5": {"test_system": "oregano clonal line 0-5", "assay": "Morphological abnormalities / tolerance of cultured shoots, oregano line 0-5", "assay_type": "cell-based", "conditions": "line 0-5, 200 μM A2C", "experimental": "as §6, §7\n(§8) Individual shoot tissue propagules of each clonal line were transferred to half strength hormone-free MS medium supplement with A2C. RA content and morphological abnormalities were determined as described in Example 1."}, "oregano clonal line OM-8": {"test_system": "oregano clonal line OM-8", "assay": "Morphological abnormalities / tolerance of cultured shoots, oregano line OM-8", "assay_type": "cell-based", "conditions": "line OM-8, 200 μM A2C", "experimental": "as §6, §8"}, "thyme clonal line M-3": {"test_system": "thyme clonal line M-3", "assay": "Morphological abnormalities / tolerance of cultured shoots, thyme line M-3", "assay_type": "cell-based", "conditions": "thyme line M-3, 200 μM A2C", "experimental": "as §6, §3"}, "rosemary clonal line R-1": {"test_system": "rosemary clonal line R-1", "assay": "Morphological abnormalities / tolerance of cultured shoots, rosemary line R-1", "assay_type": "cell-based", "conditions": "rosemary line R-1, 200 μM A2C", "experimental": "as §6, §3"}, "oregano clonal lines [6]": {"test_system": "oregano clonal lines", "assay": "Selection for A2C tolerance: RA content of about 100 oregano clonal lines", "assay_type": "cell-based", "conditions": "small fraction of about 100 oregano lines, 200 μM A2C, 30 days", "experimental": "as §1\n(§9) About 100 oregano clonal lines are initiated as described in Example 1. Lines are maintained on MS medium containing BAP as described in Example 1. At the end of a subculture cycle, 50 shoot propagules of each clonal line are transferred to half-strength hormone-free MS medium containing 200 μM A2C. Propagules are then cultured for 30 days as described in Example 1, and assayed for RA content as described in Example 1. Total phenolic content is measured as described in U.S. application Ser. No. 08/771,241, filed Dec. 20, 1996, incorporated herein by reference."}, "oregano clonal lines [7]": {"test_system": "oregano clonal lines", "assay": "Selection for A2C tolerance: total phenolic content of about 100 oregano clonal lines", "assay_type": "cell-based", "conditions": "small fraction of about 100 oregano lines, 200 μM A2C, 30 days", "experimental": "Total phenolic content can be measured, for example, using Folin-Ciocalteu reagent essentially as described in Chandler and Dodds, Plant Cell Rep. 2:105-108 (1983) and Shetty, K., Ph.D., Thesis, University of Idaho (1989). The tissue is disrupted in 95% ethanol and centrifuged to remove particulate matter. An aliquot of the ethanol supernatant is mixed with an equal volume of Folin-Ciocalteu reagent, and incubated at 25° C. A 5% sodium carbonate can be added to stabilize color development. Absorbance of the solution is measured at 725 nm is a spectrophotometer. A standard curve is developed using various concentrations of gallic acid in 95% ethanol. Absorbance values are converted to mg total phenolics/g fresh weight (FW) tissue from the standard curve.\nas §9"}, "[8]": {"test_system": "regenerated plants of oregano clone 0-1 and five tolerant clones", "assay": "Field treatment: RA content of leaf tissue of regenerated oregano plants", "assay_type": "in vivo", "conditions": "field plants sprayed with solution of A2C about 50 μm, Nonidet P40, EMC about 0.5% w/v; leaf tissue after 7 days; fresh weight and dry weight basis", "experimental": "(§10) About 100 regenerated plants of oregano clone 0-1, and the five tolerant clones of Example 7 are removed from a greenhouse, and planted outdoors in a field during the spring, and summer growing season. Plantings are carried out using a randomized block design. Plants are fertilized weekly, but are not irrigated. About 7 days before flower emergence, half of the plants of each line are sprayed with an aqueous solution comprising A2C, Nonidet P40™, and EMC prepared from strain F. A2C is present at about 50 μm, and EMC is present at about 0.5% w/v. Each plant receives about 1 to 2 ml on the upper surface of the leaves. The remaining control plants are treated by spraying an aqueous solution that contains no A2C and no EMC. Spraying is carried out such that there is little or no carryover to adjacent plants.\n(§11) After 7 days, leaf tissue from A2C-treated and control plants is harvested, and analyzed for total phenolic content, and RA content as described in Example 7. […] The plant-to-plant variation among A2C-treated plants of each line is about 5% to about 15%."}, "[9]": {"test_system": "regenerated plants of oregano clone 0-1 and five tolerant clones", "assay": "Field treatment: total phenolic content of leaf tissue of regenerated oregano plants", "assay_type": "in vivo", "conditions": "field plants sprayed with solution of A2C about 50 μm, Nonidet P40, EMC about 0.5% w/v; leaf tissue after 7 days; fresh weight and dry weight basis", "experimental": "as §10, §11"}},
  "note": "Like-named read-outs stand apart in the source and are kept apart here.",
  "data": [
    {"molecule": "O=C(O)C1CCN1", "note": "(centres unmarked) [A2C, azetidine-2-carboxylic acid]", "values": [
      {"measurement": "RA Levels", "setting": "rosemary clonal line R-7", "result": "7.9 ± 2.0", "unit": "mg/g FW"},
      {"measurement": "RA Levels", "setting": "[1]; rosemary R-15, A2C 100 μM, ± SD", "result": "9.4 ± 0.6", "unit": "mg/g FW"},
      {"measurement": "RA Levels", "setting": "[1]; rosemary R-15, A2C 200 μM", "result": "inhibited"},
      {"measurement": "RA Levels", "setting": "[2]; rosemary R-16, A2C 100 μM, ± SD", "result": "10.4 ± 1.9", "unit": "mg/g FW"},
      {"measurement": "RA Levels", "setting": "[2]; rosemary R-16, A2C 200 μM", "result": "inhibited"},
      {"measurement": "RA Levels", "setting": "[3]; rosemary R-35, A2C 100 μM", "result": "12.1 ± 1.4", "unit": "mg/g FW"},
      {"measurement": "RA Levels", "setting": "[3]; rosemary R-35, A2C 200 μM", "result": "10.9 ± 0.9", "unit": "mg/g FW"},
      {"measurement": "G-6-PDH specific activity", "setting": "[4]; 10 days of culture treatment", "result": "1.47 μmoles NADPH/min/mg protein"},
      {"measurement": "G-6-PDH specific activity", "setting": "[4]; 25 days of culture treatment", "result": "1.23 μmoles NADPH/min/mg protein"},
      {"measurement": "PAL specific activity", "setting": "[5]; 10 days of culture treatment", "result": "2.83 nanomoles cinnamate/min/mg protein"},
      {"measurement": "PAL specific activity", "setting": "[5]; 25 days of culture treatment", "result": "2.64 nanomoles cinnamate/min/mg protein"},
      {"measurement": "morphological abnormalities", "setting": "oregano clonal line 0-4", "result": "no morphological abnormalities"},
      {"measurement": "survival of line in culture", "setting": "oregano clonal line 0-5", "result": "killed"},
      {"measurement": "survival of line in culture", "setting": "oregano clonal line OM-8", "result": "killed"},
      {"measurement": "survival of line in culture", "setting": "thyme clonal line M-3", "result": "killed"},
      {"measurement": "survival of line in culture", "setting": "rosemary clonal line R-1", "result": "killed"},
      {"measurement": "increase in RA content on a fresh weight basis vs tissue cultured in the absence of A2C", "setting": "oregano clonal lines [6]", "result": "at least 2 fold"},
      {"measurement": "increase in total phenolic content on a fresh weight basis vs tissue cultured in the absence of A2C", "setting": "oregano clonal lines [7]", "result": "at least 2 fold"},
      {"measurement": "RA vs control tissue", "setting": "[8]", "result": "at least 2 fold"},
      {"measurement": "total phenolics vs control tissue", "setting": "[9]", "result": "at least 2 fold"}
    ]}
  ]
}
